One series relates to JeKo-1. The series is described as follows: Antiproliferative activity against human JeKo1 cells incubated for 72 hrs by CellTiter-Glo luminescence assay. The class given is functional. The note with it: JeKo-1, 72 h.
The next series concerns MIA PaCa-2. The experiment in a line: Antiproliferative activity against human MIAPaCa2 cells incubated for 72 hrs by CellTiter-Glo luminescence assay. The format is functional. Particulars: MIA PaCa-2, 72 h. (In general: ATP-based viability assays read luminescence as a measure of living cells.)
A further series has as its system U-87 MG. The experiment in a line: Antiproliferative activity against human U87MG cells incubated for 72 hrs by CellTiter-Glo luminescence assay. The class given is functional, U-87MG ATCC.
The test system of another series is T47D. The experiment in a line: Antiproliferative activity against human T47D cells incubated for 72 hrs by CellTiter-Glo luminescence assay. The format is functional.
Another series relates to HCT-116. The series is described as follows: Antiproliferative activity against human HCT116 cells incubated for 72 hrs by CellTiter-Glo luminescence assay. The class given is functional. The note with it: HCT-116, 72 h.
Another series has as its system SK-MEL19. The series is described as follows: Antiproliferative activity against human SK-MEL-19 cells incubated for 72 hrs by CellTiter-Glo luminescence assay. The format is functional. The note with it: SK-MEL19, 72 h.
A further series concerns MDA-MB-231. The series is described as follows: Antiproliferative activity against human MDA-MB-231 cells incubated for 72 hrs by CellTiter-Glo luminescence assay. The format is functional. Particulars: MDA-MB-231, 72 h.
The next series relates to MV4-11. The experiment in a line: Antiproliferative activity against human MV4-11 cells incubated for 72 hrs by CellTiter-Glo luminescence assay. The class given is functional. Particulars: MV4-11, 72 h.
The test system of the next series is DU-145. The series is described as follows: Antiproliferative activity against human DU145 cells incubated for 72 hrs by CellTiter-Glo luminescence assay. The format is functional. The note with it: DU-145, 72 h.
Series [1] deals with Voltage-gated inwardly rectifying potassium channel KCNH2 (Homo sapiens, UniProt Q12809).
Series [2] is described as follows: Clearance in iv dosed Balb/c mouse administered as single dose measured after 0.08 to 4 hrs by HPLC/MS analysis relative to hepatic blood flow. The class given is ADME, organism-based. The note with it: in vivo.
Series [3] deals with T1, Serine/threonine-protein kinase pim-1 (Homo sapiens, UniProt P11309). The experiment in a line: Inhibition of His tagged human recombinant PIM1 using PIM tide (ARKRRRHPSGPPTA) as substrate incubated for 1 hr by fluorescence based assay.
A short description of series [4]: Clearance in iv dosed Balb/c mouse administered as single dose measured after 0.08 to 4 hrs by HPLC/MS analysis. The class given is ADME, organism-based. The note with it: in vivo.
The target in series [5] is T2, Receptor-type tyrosine-protein kinase FLT3 (Homo sapiens, UniProt P36888).
T2 sequence (P36888 whole entry): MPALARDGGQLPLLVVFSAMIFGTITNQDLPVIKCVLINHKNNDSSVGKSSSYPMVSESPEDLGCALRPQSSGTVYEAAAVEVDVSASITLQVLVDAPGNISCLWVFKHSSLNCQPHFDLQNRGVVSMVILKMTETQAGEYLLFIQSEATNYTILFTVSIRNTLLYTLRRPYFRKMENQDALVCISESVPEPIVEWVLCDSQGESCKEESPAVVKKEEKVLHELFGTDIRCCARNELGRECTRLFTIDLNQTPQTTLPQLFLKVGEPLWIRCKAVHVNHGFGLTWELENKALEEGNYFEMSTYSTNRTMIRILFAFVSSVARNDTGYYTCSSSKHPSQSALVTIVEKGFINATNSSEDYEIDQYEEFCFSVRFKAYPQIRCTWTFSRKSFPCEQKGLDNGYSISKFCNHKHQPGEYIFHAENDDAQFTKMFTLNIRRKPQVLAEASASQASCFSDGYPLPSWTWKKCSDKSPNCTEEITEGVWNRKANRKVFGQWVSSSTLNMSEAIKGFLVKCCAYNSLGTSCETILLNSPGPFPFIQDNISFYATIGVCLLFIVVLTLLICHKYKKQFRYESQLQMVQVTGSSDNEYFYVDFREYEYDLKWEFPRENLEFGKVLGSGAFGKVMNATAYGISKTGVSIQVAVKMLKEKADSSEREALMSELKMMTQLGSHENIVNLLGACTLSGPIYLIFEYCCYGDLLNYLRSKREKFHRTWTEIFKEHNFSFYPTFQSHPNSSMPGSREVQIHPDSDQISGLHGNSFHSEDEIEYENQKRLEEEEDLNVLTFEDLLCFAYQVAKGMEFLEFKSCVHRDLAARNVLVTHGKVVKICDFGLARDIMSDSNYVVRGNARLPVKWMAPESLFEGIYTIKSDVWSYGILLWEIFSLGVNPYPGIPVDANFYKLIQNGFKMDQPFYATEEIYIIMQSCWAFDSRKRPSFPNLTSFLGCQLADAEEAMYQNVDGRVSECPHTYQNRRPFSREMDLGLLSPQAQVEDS
The series is described as follows: Inhibition of human FLT3 using EAIYAAPFAKKK as substrate incubated for 60 mins by fluorescence based assay.

Series [6] deals with Serine/threonine-protein kinase pim-3 (Homo sapiens, UniProt Q86V86). The series is described as follows: Inhibition of N-terminal 6-His tagged human recombinant PIM3 using PIM tide (ARKRRRHPSGPPTA) as substrate incubated for 1 hr by fluorescence based assay.
Series [7] concerns the target T1, Serine/threonine-protein kinase pim-1. The series is described as follows: Inhibition of PIM1 in human NCI-H1299 cells assessed as reduction in BAD phosphorylation at Ser-112 residue incubated for 4 hrs by ELISA. The note with it: read-out: EC50. The class given is cell-based. (In general: An ELISA detects its analyte on a solid surface through an enzyme-linked reagent.)

The target of series [8] is Serine/threonine-protein kinase pim-2 (Homo sapiens, UniProt Q9P1W9). The series is described as follows: Inhibition of His tagged human recombinant PIM2 using PIM tide (ARKRRRHPSGPPTA) as substrate incubated for 1 hr by fluorescence based assay.
A further series has as its system PC-3. The experiment in a line: Antiproliferative activity against human PC3 cells incubated for 72 hrs by CellTiter-Glo luminescence assay. Particulars: PC-3, 72 h. The format is functional.
The test system of another series is Raji. The series is described as follows: Antiproliferative activity against human Raji cells incubated for 72 hrs by CellTiter-Glo luminescence assay. The class given is functional.

Usually GI50 stands for the concentration at which growth is held to half of that of the control. Read a low GI50 as greater sensitivity of the cells. By IC50 is commonly meant the concentration that gives 50% inhibition. In general, clearance refers to the rate of elimination divided by the concentration. Usually EC50 stands for the concentration at which the effect is half-maximal.

In the case of `CS(=O)(=O)CCNCc1ccc(-c2ccc3ncnc(Nc4ccc(OCc5cccc(F)c5)c(Cl)c4)c3c2)o1` [LAPATINIB], the GI50 turned out to be 5 µM in the series on JeKo-1; 10 µM with MIA PaCa-2; 10 µM in the series on U-87 MG; 40 µM in the series on T47D; 20 µM in the series with HCT-116; 5 µM in the series on SK-MEL19. Besides, the GI50 in the series with MDA-MB-231 is 20 µM; in the series with MV4-11, 10 µM; in the series with DU-145 it was 20 µM.

Take `CN1CCOc2c1cnn1c(-c3ccc4c(F)c(F)cc(NCC5(F)CCNCC5)c4n3)nnc21`: the IC50 was more than 20 µM in series [1]; 0.018 µM in series [3]; 6.32 µM in series [5]; 0.012 µM in [6]; 3.59 µM in [8]. In addition, in [2], the CLH was less than 30%. The compound also showed a clearance in series [4] of 3.83 mL/min/kg. Besides, the EC50 in series [7] was 0.155 µM.

Turning to `CC(=O)O[C@@]12CO[C@@H]1C[C@H](O)[C@@]1(C)C(=O)[C@H](O)C3=C(C)[C@@H](OC(=O)[C@H](O)[C@@H](NC(=O)OC(C)(C)C)c4ccccc4)C[C@@](O)([C@@H](OC(=O)c4ccccc4)[C@H]21)C3(C)C` [DOCETAXEL ANHYDROUS], the GI50 stood at 0.002 µM in the series on SK-MEL19 and 0.0005 µM in the series with MV4-11.

`O=C(CCCCCCC(=O)Nc1ccccc1)NO` [VORINOSTAT]: it took 5 µM to inhibit growth in the series with PC-3 by half (GI50).

Regarding `CS(=O)(=O)N1CCN(Cc2cc3nc(-c4cccc5[nH]ncc45)nc(N4CCOCC4)c3s2)CC1` [PICTILISIB], the GI50 in the series with JeKo-1 came to 5 µM; in the series on MIA PaCa-2, 12 µM; in the series on U-87 MG it was 6 µM; with T47D, 3 µM; in the series with PC-3 it was 3 µM; in the series on SK-MEL19 it was 6 µM. The GI50 in the series on MDA-MB-231 is 12 µM; in the series with MV4-11, 3 µM.

Turning to `CC(C)C[C@H](NC(=O)[C@H](Cc1ccccc1)NC(=O)c1cnccn1)B(O)O` [BORTEZOMIB], in the series with PC-3, the GI50 was determined as 0.04 µM.

Regarding `CN1CCOc2c1cnn1c(-c3ccc4ccnc(NCC5(F)CCNCC5)c4c3)nnc21`, the IC50 is more than 20 µM in [1]; 0.007 µM in [3]; more than 10 µM in series [5]; 0.026 µM in [6]; 0.122 µM in series [8]. Besides, in series [2], the CLH was less than 30%. The compound also showed a clearance in series [4] of 23.2 mL/min/kg. In series [7], the EC50 came to 0.2 µM.

Turning to `CC(=O)c1c(C)c2cnc(Nc3ccc(N4CCNCC4)cn3)nc2n(C2CCCC2)c1=O` [PALBOCICLIB], the GI50 with JeKo-1, in the series on Raji, in the series with SK-MEL19 and in the series with MDA-MB-231 was 30 µM throughout.

As to `CN1CCOc2c1cnn1c(-c3ccc4cccc(NC5CCCCC5)c4n3)nnc21`, the IC50 in [1] was more than 20 µM; in series [3] it was 0.032 µM; in series [5] it was more than 10 µM; in series [6], 0.3 µM; in [8] it was 3.33 µM. In addition, the CLH in series [2] is given as less than 30%. This compound had a clearance in series [4] of 23.7 mL/min/kg. Further, the EC50 in [7] stood at 0.22 µM.
